Results as given in US20230265151A1, “GIP/GLP1 CO-AGONIST COMPOUNDS” (priority 2020, published 2023).
Like-named read-outs stand apart in the source and are kept apart here.

Columns and labels:
Format in all cases: cell-based
[1] = target: hGLP-1R (Homo sapiens, UniProt P43220); assay: Functional cAMP formation (HTRF) in HEK-293 clonal cells expressing hGLP-1R, 0.1% bovine casein, without or with 1.0% human serum albumin; set-up: expressed in transfected cells
Method in brief: (§1)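 Cells were stimulated with peptide for 30 min at 37° C, then intracellular cAMP was measured by competitive HTRF (665/620 nm ratio) and converted to nM using a cAMP standard curve. Relative EC50 and Emax came from four-parameter logistic fits of percent maximal response against peptide concentration.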

[2] = target: T1, hGIPR (Homo sapiens, UniProt P48546); assay: Functional cAMP formation (HTRF) in HEK-293 clonal cells expressing hGIPR, 0.1% bovine casein, without or with 1.0% human serum albumin; settings: for EC50: geometric mean
T1 construct: expressed in transfected cells
T1 sequence (P48546 22-466): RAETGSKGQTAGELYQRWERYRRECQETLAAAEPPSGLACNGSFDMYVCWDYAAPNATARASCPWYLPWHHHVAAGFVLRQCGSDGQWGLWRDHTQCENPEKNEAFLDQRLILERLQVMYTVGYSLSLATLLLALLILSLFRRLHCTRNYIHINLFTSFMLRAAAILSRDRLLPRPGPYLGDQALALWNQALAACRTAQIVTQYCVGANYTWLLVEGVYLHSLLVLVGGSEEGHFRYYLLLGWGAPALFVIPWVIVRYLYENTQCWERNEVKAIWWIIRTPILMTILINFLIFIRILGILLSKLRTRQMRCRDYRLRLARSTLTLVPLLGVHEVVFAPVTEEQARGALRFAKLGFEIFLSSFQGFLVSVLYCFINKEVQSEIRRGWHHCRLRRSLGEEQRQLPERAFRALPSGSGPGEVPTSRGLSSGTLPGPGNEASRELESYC
Method in brief: as §1

[3] = target: T2, hGCGR (Homo sapiens, UniProt P47871); assay: Functional cAMP formation (HTRF) in HEK-293 clonal cells expressing hGCGR, 0.1% bovine casein, without or with 1.0% human serum albumin
T2 construct: expressed in transfected cells
Method in brief: as §1

[4] = 0.1% bovine casein and 1.0% human serum albumin, 37° C., geometric mean, read-out: hGLP-1R EC50, nM (SEM, n)
[5] = HEK293, 0.1% bovine casein and 1.0% human serum albumin, 37° C., percent of maximal response to GLP-1(7-36)NH2, read-out: hGLP-1R Emax, % ± SEM
[6] = HEK293, 0.1% bovine casein and 1.0% human serum albumin, 37° C., percent of maximal response to GIP(1-42)NH2, read-out: hGIPR Emax, % ± SEM
[7] = cAMP, incubated at 37° C., 0.1% bovine casein (no human serum albumin), read-out: hGIPR EC50, nM (SEM, n)
[8] = 0.1% bovine casein and 1.0% human serum albumin, 37° C., geometric mean, read-out: hGCGR EC50, nM (SEM, n)
[9] = cAMP, incubated at 37° C., 0.1% bovine casein (no human serum albumin), geometric mean, read-out: hGCGR EC50, nM (SEM, n)

T2 sequence (P47871 26-477): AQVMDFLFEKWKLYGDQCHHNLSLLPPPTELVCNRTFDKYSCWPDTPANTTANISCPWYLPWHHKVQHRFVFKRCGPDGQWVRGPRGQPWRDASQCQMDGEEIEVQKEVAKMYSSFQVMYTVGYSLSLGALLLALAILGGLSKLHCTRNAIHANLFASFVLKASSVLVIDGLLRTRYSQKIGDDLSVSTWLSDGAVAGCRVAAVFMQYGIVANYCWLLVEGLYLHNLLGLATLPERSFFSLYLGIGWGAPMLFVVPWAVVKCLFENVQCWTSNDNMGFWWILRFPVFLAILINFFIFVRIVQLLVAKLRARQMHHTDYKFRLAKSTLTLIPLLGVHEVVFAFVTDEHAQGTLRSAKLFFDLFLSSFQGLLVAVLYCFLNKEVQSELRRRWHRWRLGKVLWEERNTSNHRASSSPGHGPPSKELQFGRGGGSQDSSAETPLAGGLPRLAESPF
hGLP-1R, sequence (P43220 24-463): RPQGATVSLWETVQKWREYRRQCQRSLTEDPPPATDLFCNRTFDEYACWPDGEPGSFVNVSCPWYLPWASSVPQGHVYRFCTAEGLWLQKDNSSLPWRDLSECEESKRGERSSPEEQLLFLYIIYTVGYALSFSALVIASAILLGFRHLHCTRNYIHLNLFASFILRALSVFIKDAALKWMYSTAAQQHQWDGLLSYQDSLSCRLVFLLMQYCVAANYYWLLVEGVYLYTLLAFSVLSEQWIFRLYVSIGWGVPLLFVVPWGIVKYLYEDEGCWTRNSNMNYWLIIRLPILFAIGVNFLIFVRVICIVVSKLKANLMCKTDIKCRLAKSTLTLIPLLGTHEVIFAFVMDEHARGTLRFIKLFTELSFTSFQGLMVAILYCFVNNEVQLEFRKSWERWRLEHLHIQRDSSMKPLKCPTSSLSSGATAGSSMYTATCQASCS

`CC[C@H](C)[C@H](NC(=O)[C@H](CC(C)C)NC(=O)[C@](C)(Cc1ccc(O)cc1)NC(=O)[C@@H](CCC(=O)O)NC(=O)[C@@H](NC(=O)[C@H](Cc1ccccc1)NC(=O)[C@H](CCC(=O)O)NC(=O)C(C)(C)NC(=O)[C@H](CCC(N)=O)NC(=O)[C@H](C)NC(=O)[C@H](CCCCNC(=O)[C@@H](N)CCCCNC(=O)CC[C@H](NC(=O)CCCCCCCCCCCCC(=O)O)C(=O)O)NC(=O)[C@H](CCCN)NC(=O)[C@H](CC(=O)O)NC(=O)[C@H](CC(C)C)NC(=O)[C@](C)(CC(C)C)NC(=O)[C@@H](NC(=O)[C@H](CO)NC(=O)[C@H](Cc1ccncc1)NC(=O)[C@H](CC(=O)O)NC(=O)[C@H](CO)NC(=O)[C@@H](NC(=O)[C@](C)(Cc1ccccc1F)NC(=O)[C@@H](NC(=O)CNC(=O)[C@H](CCC(=O)O)NC(=O)C(C)(C)NC(=O)[C@@H](N)Cc1ccc(O)cc1)[C@@H](C)O)[C@@H](C)O)[C@@H](C)CC)[C@@H](C)CC)C(=O)N[C@@H](CCC(=O)O)C(=O)NCC(=O)NCC(=O)N[C@@H](CCCCNC(=O)[C@@H](N)CCCCNC(=O)CC[C@H](NC(=O)CCCCCCCCCCCCC(=O)O)C(=O)O)C(=O)N[C@@H](CO)C(=O)N[C@@H](CO)C(=O)NCC(=O)N[C@@H](C)C(=O)N1CCC[C@H]1C(=O)N1CCC[C@H]1C(=O)N1CCC[C@H]1C(=O)N[C@@H](CO)C(N)=O` [Example 38] showed an EC50 [1, 4] of 12.5 nM, an Emax [1, 5] of 115 ± 2.53% and an EC50 ([1]; cAMP, incubated at 37° C., 0.1% bovine casein (no human serum albumin), geometric mean, read-out: hGLP-1R EC50, nM (SEM, n)) of 0.225 nM. For the same compound, the EC50 ([2]; 0.1% bovine casein and 1.0% human serum albumin, 37° C., read-out: hGIPR EC50, nM (SEM, n)) was 0.539 nM, the Emax [2, 6] was 88.8 ± 0.59% and the EC50 [2, 7] was 0.0155 nM. The EC50 [3, 8] was greater than 9950 nM and the EC50 [3, 9] was greater than 9950 nM.
In the case of `CCCCCCCCCCCC(=O)N[C@@H](CCC(=O)NCCOCCOCC(=O)NCCCC[C@H](NC(=O)[C@H](CCCN)NC(=O)[C@H](CC(=O)O)NC(=O)[C@H](CC(C)C)NC(=O)[C@](C)(CC(C)C)NC(=O)[C@@H](NC(=O)C(C)(C)NC(=O)[C@H](Cc1ccncc1)NC(=O)[C@H](CC(=O)O)NC(=O)[C@H](CO)NC(=O)[C@@H](NC(=O)[C@](C)(Cc1ccccc1F)NC(=O)[C@@H](NC(=O)CNC(=O)[C@H](CCC(=O)O)NC(=O)C(C)(C)NC(=O)[C@@H](N)Cc1ccc(O)cc1)[C@@H](C)O)[C@@H](C)O)[C@@H](C)CC)C(=O)N[C@@H](C)C(=O)N[C@@H](CCC(N)=O)C(=O)NC(C)(C)C(=O)N[C@@H](CCC(=O)O)C(=O)N[C@@H](Cc1ccccc1)C(=O)N[C@H](C(=O)N[C@H](CCC(=O)O)C(=O)N[C@@](C)(Cc1ccc(O)cc1)C(=O)N[C@@H](CC(C)C)C(=O)N[C@H](C(=O)N[C@@H](CCCCNC(=O)COCCOCCNC(=O)CC[C@H](NC(=O)CCCCCCCCCCC)C(=O)O)C(=O)NCC(=O)NCC(=O)N1CCC[C@H]1C(=O)N[C@@H](CO)C(=O)N[C@@H](CO)C(=O)NCC(=O)N[C@@H](C)C(=O)N1CCC[C@H]1C(=O)N1CCC[C@H]1C(=O)N1CCC[C@H]1C(=O)N[C@@H](CO)C(N)=O)[C@@H](C)CC)[C@@H](C)CC)C(=O)O` [Example 427], the Emax ([1]; HEK293, cAMP, 37° C., 0.1% bovine casein and 1.0% human serum albumin, percent of maximal response to GLP-1(7-36)NH2, read-out: hGLP-1R Emax, % ± SEM) is reported as 109%, the Emax ([1]; HEK293, cAMP, 37° C., 0.1% bovine casein, percent of maximal response to GLP-1(7-36)NH2, arithmetic mean, read-out: hGLP-1R Emax, % ± SEM) is reported as 109% and the EC50 ([1]; cAMP, 37° C., 0.1% bovine casein (no human serum albumin), geometric mean, read-out: hGLP-1R EC50, nM (SEM, n)) is reported as 0.206 nM. The EC50 ([1]; cAMP, 37° C., 0.1% bovine casein and 1.0% human serum albumin, geometric mean (SEM, n), read-out: hGLP-1R EC50, nM (SEM, n)) was 25.1 nM, the Emax ([2]; HEK293, cAMP, 37° C., 0.1% bovine casein and 1.0% human serum albumin, percent of maximal response to GIP(1-42)NH2, read-out: hGIPR Emax, % ± SEM) was 92.4% and the Emax ([2]; HEK293, cAMP, 37° C., 0.1% bovine casein, percent of maximal response to GIP(1-42)NH2, arithmetic mean, read-out: hGIPR Emax, % ± SEM) was 95.9%. It also gave an EC50 ([2]; cAMP, 37° C., 0.1% bovine casein (no human serum albumin), read-out: hGIPR EC50, nM (SEM, n)) of 0.0132 nM, an EC50 ([3]; cAMP, 37° C., 0.1% bovine casein (no human serum albumin), geometric mean, read-out: hGCGR EC50, nM (SEM, n)) greater than 9950 nM and an EC50 ([3]; cAMP, 37° C., 0.1% bovine casein and 1.0% human serum albumin, geometric mean (SEM, n), read-out: hGCGR EC50, nM (SEM, n)) greater than 9950 nM.
`CC[C@H](C)[C@H](NC(=O)[C@H](CC(C)C)NC(=O)[C@](C)(Cc1ccc(O)cc1)NC(=O)[C@H](CCCCNC(=O)COCCOCCNC(=O)COCCOCCNC(=O)CC[C@H](NC(=O)CCCCCCCCCCCCC(=O)O)C(=O)O)NC(=O)[C@@H](NC(=O)[C@H](Cc1ccccc1)NC(=O)[C@H](CCC(=O)O)NC(=O)C(C)(C)NC(=O)[C@H](CCC(N)=O)NC(=O)[C@H](C)NC(=O)[C@H](CCCCNC(=O)COCCOCCNC(=O)COCCOCCNC(=O)CC[C@H](NC(=O)CCCCCCCCCCCCC(=O)O)C(=O)O)NC(=O)[C@H](CCCN)NC(=O)[C@H](CC(=O)O)NC(=O)[C@H](CC(C)C)NC(=O)[C@](C)(CC(C)C)NC(=O)[C@@H](NC(=O)[C@](C)(CO)NC(=O)[C@H](Cc1ccncc1)NC(=O)[C@H](CC(=O)O)NC(=O)[C@H](CO)NC(=O)[C@@H](NC(=O)[C@](C)(Cc1ccccc1F)NC(=O)[C@@H](NC(=O)CNC(=O)[C@H](CCC(=O)O)NC(=O)C(C)(C)NC(=O)[C@@H](N)Cc1ccc(O)cc1)[C@@H](C)O)[C@@H](C)O)[C@@H](C)CC)[C@@H](C)CC)C(=O)N[C@@H](CCC(=O)O)C(=O)NCC(=O)NCC(=O)N1CCC[C@H]1C(=O)N[C@@H](CO)C(=O)N[C@@H](CO)C(=O)NCC(=O)N[C@@H](C)C(=O)N1CCC[C@H]1C(=O)N1CCC[C@H]1C(=O)N1CCC[C@H]1C(=O)N[C@@H](CO)C(N)=O` [Example 214] showed an Emax ([1]; HEK293, read-out: hGLP-1R Emax, % ± SEM, percent of maximal response to GLP-1(7-36)NH2, 37° C., 0.1% bovine casein, arithmetic mean) of 93.2%, an EC50 ([1]; hGLP-1R EC50, nM (SEM, n), 0.1% bovine casein and 1.0% human serum albumin, 37° C., geometric mean) of 17.9 nM and an Emax ([2]; HEK293, read-out: hGIPR Emax, % ± SEM, 0.1% bovine casein and 1.0% human serum albumin, 37° C., percent of maximal response to GIP(1-42)NH2) of 80.4%. It also gave an EC50 ([2]; hGIPR EC50, nM (SEM, n), 0.1% bovine casein and 1.0% human serum albumin, 37° C.) of 2.03 nM, an EC50 ([2]; hGIPR EC50, nM (SEM, n), cAMP, incubated at 37° C., 0.1% bovine casein (no human serum albumin)) of 0.0351 nM and an EC50 ([3]; hGCGR EC50, nM (SEM, n), 0.1% bovine casein and 1.0% human serum albumin, 37° C., geometric mean) greater than 9950 nM. The EC50 ([3]; hGCGR EC50, nM (SEM, n), cAMP, incubated at 37° C., 0.1% bovine casein (no human serum albumin), geometric mean) was greater than 9950 nM.
Work on `CC[C@H](C)[C@H](NC(=O)[C@H](CC(C)C)NC(=O)[C@](C)(Cc1ccc(O)cc1)NC(=O)[C@@H](CCC(=O)O)NC(=O)[C@@H](NC(=O)[C@H](Cc1ccccc1)NC(=O)[C@H](CCC(=O)O)NC(=O)C(C)(C)NC(=O)[C@H](CCC(N)=O)NC(=O)[C@H](C)NC(=O)[C@H](CCCCNC(=O)[C@@H](N)CCCCNC(=O)CC[C@H](NC(=O)CCCCCCCCCCCCC(=O)O)C(=O)O)NC(=O)[C@H](CCCN)NC(=O)[C@H](CC(=O)O)NC(=O)[C@H](CC(C)C)NC(=O)[C@](C)(CC(C)C)NC(=O)[C@@H](NC(=O)C(C)(C)NC(=O)[C@@H](NC(=O)[C@H](CC(=O)O)NC(=O)[C@H](CO)NC(=O)[C@@H](NC(=O)[C@](C)(Cc1ccccc1F)NC(=O)[C@@H](NC(=O)CNC(=O)[C@H](CCC(=O)O)NC(=O)C(C)(C)NC(=O)[C@@H](N)Cc1ccc(O)cc1)[C@@H](C)O)[C@@H](C)O)C(C)C)[C@@H](C)CC)[C@@H](C)CC)C(=O)N[C@@H](CCC(=O)O)C(=O)NCC(=O)NCC(=O)N[C@@H](CCCCNC(=O)[C@@H](N)CCCCNC(=O)CC[C@H](NC(=O)CCCCCCCCCCCCC(=O)O)C(=O)O)C(=O)N[C@@H](CO)C(=O)N[C@@H](CO)C(=O)NCC(=O)N[C@@H](C)C(=O)N1CCC[C@H]1C(=O)N1CCC[C@H]1C(=O)N1CCC[C@H]1C(=O)N[C@@H](CO)C(N)=O` [Example 164] yielded an EC50 [1, 4] of 26.6 nM, an Emax [1, 5] of 95.4% and an Emax ([1]; HEK293, percent of maximal response to GLP-1(7-36)NH2, 37° C., 0.1% bovine casein, arithmetic mean, read-out: hGLP-1R Emax, % ± SEM) of 93.8 ± 0.298%. It also gave an Emax [2, 6] of 93%, an Emax ([2]; HEK293, percent of maximal response to GIP(1-42)NH2, 37° C., 0.1% bovine casein, arithmetic mean, read-out: hGIPR Emax, % ± SEM) of 95.8 ± 5.48% and an EC50 [2, 7] of 0.0464 nM. The EC50 [3, 8] was greater than 9950 nM and the EC50 [3, 9] was greater than 9950 nM.
